Assay results published in patent US20200061026A1, “METHODS AND COMPOSITIONS FOR PREVENTING VECTOR-BORNE DISEASE TRANSMISSION” (The Scripps Research Institute, priority 2016, published 2020).
Where two headings read alike, the source gives them in different places.

How the values were obtained:
[1] = tested on: various Anopheles and Aedes mosquitos; assay: Membrane feeding, all Anopheles and Aedes strains tested; assay type: in vivo; conditions: read-out: IC50 values, range against all strains tested
Method: (§1) Isoxazoline compounds fluralaner or afoxolaner were reconstituted in 50% human serum and 50% red blood cells and administered to adult Anopheles stephensi mosquitos via standard membrane feeding. Lethality was assessed 1, 2 or 8 days after exposure. FIG. 2A represents a plot of viable Anopheles stephensi versus fluralaner concentration at each day of assessment. FIG. 2B represents a plot of viable Anopheles stephensi versus afoxolaner concentration at each day of assessment. […] The IC50 values of each compound for Anopheles death were determined by logistic regression using a least squares method to find the best fit and are shown in Table 1. IC50 values were calculated by applying a four-parameter logistic regression model using a least-squares method to find the best fit using the Graphpad Prism 5.0 software package.

Brugia pahangi = Brugia pahangi microfilariae viability (Cell-Titer Glo); assay type: in vivo
Method: Microfilariae of Brugia pahangi were kept in 75 cm^2 flasks in RPMI-1640 with fetal bovine serum as described previously (Plos Negl. Trop. Dis. 2012, e1494). To test viability, 384-well plates were filled with 250 microfilariae per well. Serial dilutions of isoxazolines, ivermectin, moxidectin and equivalent vehicle concentration (0.5% DMSO) were added to the wells. Seventy two hours after treatment, viability was assessed with the Cell-Titer Glo reagent (Promega). FIG. 13A represents a plot of viable Brugia pahangi versus fluralaner, afoxolaner, or control compound (moxidectin and ivermectin) concentration as assessed at 24 hours. FIG. 13B represents a plot of viable Brugia pahangi versus fluralaner, afoxolaner, or control compound (moxidectin and ivermectin) concentration as assessed at 48 hours. FIG. 13C represents a plot of viable Brugia pahangi versus fluralaner, afoxolaner, or control compound (moxidectin and ivermectin) concentration as assessed at 72 hours.

[2] = cited from earlier work
[3] = tested on: Anopheles gambiae (Tiassalé); assay: Membrane feeding, Anopheles gambiae Tiassalé strain (rdl mutation); assay type: in vivo; conditions: for IC50: Anopheles gambiae, read-out: IC50 [95% CI]
Method: Mosquito colonies utilized in the examples were generally maintained as described: The colony of Anopheles stephensi (Sind-Kasur Nijmegen strain) was maintained at the Radboud University Medical Center, Nijmegen, The Netherlands, by 30° C. and 70-80% humidity and on a 12/12 hour day/night cycle. The Anopheles gambiae strains Kisumu and Tiassalé and the Aedes aegypti strains New Orleans and Cayman were reared at the Liverpool Insect Testing Establishment, Liverpool, UK. Kisumu is an insecticide susceptible lab strain. New Orleans was originally colonized by the Centers for Disease Control and Prevention. The Tiassalé strain was colonized from Southern Cote D'Ivoire where resistance to all classes of insecticide is found and the Cayman strain was colonized from Grand Cayman, where Aedes aegypti are highly resistant to DDT and pyrethroid insecticides. Both resistant strains are routinely selected with insecticides to ensure the maintenance of resistance, 0.75% permethrin for Cayman and 0.05% deltamethrin for Tiassalé, and profiled for resistance to a range of insecticides, including 4% dieldrin, to which Tiassalé is resistant but Cayman is susceptible.
as §1
The membrane feeding experiment described was repeated using the insecticide dieldrin on two strains of Anopheles gambiae: Kisumu and Tiassale. The Tiassale strain has a mutation in the resistance to dieldrin (rdl) locus, which codes for γ-aminobutyric acid (GABA) receptor. The Tiassale strain was resistant to pyrethroids, carbamate, DDT and dieldrin (knockdown resistance (kdr), Ace and rdl mutations). The Kisumu strain was susceptible to killing by all tested insecticides. FIG. 3A represents a plot of percentage survival of Kisumu and Tiassale strains of Anopheles gambiae versus dieldrin concentration. FIG. 3B represents a plot of survival of the Kisumu and Tiassale strains at 10 μM dieldrin. […] Both figures indicate that the dose-response in systemic feed experiment performed here in allows for identification of a resistance profile.
The feed experiment in Anopheles gambiae was repeated using the isoxazoline compounds fluralaner and afoxolaner to determine if the rdl mutation confers resistance to the isoxazoline insecticides. Isoxazoline insecticides target Rdl, but in a location thought to be different from dieldrin. The mosquitos were fed fluralaner or afoxolaner at various concentrations and lethality was assessed after 24 hours. FIG. 4A represents a plot of percentage survival of Kisumu and Tiassale strains of Anopheles gambiae versus fluralaner concentration. FIG. 4B represents a plot of percentage survival of Kisumu and Tiassale strains of Anopheles gambiae versus afoxolaner concentration.

Phlebotomus argentipes = assay: Membrane feeding, sand fly Phlebotomus argentipes; conditions: in vivo
From the text: (§2) Isoxazoline compounds fluralaner or afoxolaner were reconstituted in 50% human serum and 50% red blood cells and administered to sand flies Lutzomyia longipalpis and Phlebotomus argentipes via standard membrane feeding. These san fly species are vectors for visceral leishmaniasis. FIG. 12A represents a plot of viable Lutzomyia longipalpis versus fluralaner concentration at various times of assessment. FIG. 12B represents a plot of viable Lutzomyia longipalpis versus afoxolaner concentration at various times of assessment. FIG. 12C represents a plot of viable Phlebotomus argentipes versus fluralaner concentration at various times of assessment. FIG. 12D represents a plot of viable Phlebotomus argentipes versus afoxolaner concentration at various times of assessment. […] The EC50 values of each compound for sand fly death were determined by logistic regression using a least squares method to find the best fit and are shown in the figures.

[4] = tested on: Aedes aegypti (New Orleans); assay: Membrane feeding, Aedes aegypti New Orleans strain; assay type: in vivo; conditions: read-out: IC50 [95% CI]
[5] = tested on: Anopheles gambiae (Kisumu); assay: Membrane feeding, Anopheles gambiae Kisumu strain; assay type: in vivo; conditions: read-out: IC50 [95% CI]
Method: Mosquito colonies utilized in the examples were generally maintained as described: The colony of Anopheles stephensi (Sind-Kasur Nijmegen strain) was maintained at the Radboud University Medical Center, Nijmegen, The Netherlands, by 30° C. and 70-80% humidity and on a 12/12 hour day/night cycle. The Anopheles gambiae strains Kisumu and Tiassalé and the Aedes aegypti strains New Orleans and Cayman were reared at the Liverpool Insect Testing Establishment, Liverpool, UK. Kisumu is an insecticide susceptible lab strain. New Orleans was originally colonized by the Centers for Disease Control and Prevention. […]
as §1, with “exposure.” for “exposure. FIG. 2A represents a plot of viable Anopheles stephensi versus fluralaner concentration at each day of assessment. FIG. 2B represents a plot of viable Anopheles stephensi versus afoxolaner concentration at each day of assessment.”, “package. […]” for “package.”

Lutzomyia longipalpis = assay: Membrane feeding, sand fly Lutzomyia longipalpis; conditions: in vivo
From the text: as §2

Anopheles mosquitos = assay: Lethal duration estimated by extrapolating published Beagle dog PK curves to killing concentrations
From the text: Data for fluralaner in Beagle dogs was obtained from Walther et al., Parasites & Vectors 8:508. Data from afoxolaner in Beagle dogs was obtained from Letendre et al., Veterinary Parasitology, 201, 190-197.
The lethal duration of fluralaner and afoxolaner was estimated by extrapolating pharmacokinetic curves from published studies in Beagle dogs to the killing concentrations determined by the membrane feeding studies described in Example 2. Data for fluralaner in Beagle dogs was obtained from Walther et al., Parasites & Vectors 8:508. Data from afoxolaner in Beagle dogs was obtained from Letendre et al., Veterinary Parasitology, 201, 190-197. A mathematical model was used to estimate the impact of these compounds on Anopheles stephensi mosquito survival.

[6] = Brain homogenate binding assay (equilibrium dialysis)
Method: Briefly, frozen tissue homogenate (homogenized with buffer at a certain volume ratio) was used as a test matrix. The tissue homogenate was purchased from Bioreclamation (Hicksville, N.Y., USA) or prepared by WuXi AppTec.
Isoxazoline compounds were spiked into blank tissue homogenate at the test concentration. Triplicate samples were used.
An appropriate volume of spiked tissue sample was removed before incubation for recovery calculation. An aliquot (e.g., 150 μL) of matrix sample was added to the donor side of the chamber (donor chamber) in a dialyzer plate (HTD dialysis device or RED device) and a certain amount of dialysis buffer was loaded to the other side of the chamber (receiver chamber). Triplicate incubations were performed (or other replicate number according to specific requirement).
The dialyzer plate was placed into a humidified incubator with 5% CO2 and incubated at 37° C. for appointed time (the general incubation time is 4-6 h).
After incubation, samples were removed from the donor side as well as the receiver side.
The samples were matched with appropriate amount of the opposite blank matrix (tissue homogenate or buffer). […]
The samples were analyzed by LC-MS/MS. Test compound concentrations in matrix and buffer samples were assessed based on the peak area ratios (PAR) of analyte/internal standard (no standard curve).

| SMILES | killing of Brugia pahangi (in words) (Brugia pahangi) | embryo-fetal development in rats [2] | activity against strain carrying the resistance-to-dieldrin (rdl) mutation (in words) ([3]; Tiassalé strain) | killing of sand flies (in words) (Phlebotomus argentipes) | killing of sand flies (in words) (Lutzomyia longipalpis) | Brain homogenate % binding [6] | other results |
| --- | --- | --- | --- | --- | --- | --- | --- |
| Cc1cc(C2=NO[C@](c3cc(Cl)cc(Cl)c3)(C(F)(F)F)C2)ccc1C(=O)NCC(=O)NCC(F)(F)F [Fluralaner, fluralaner] | effective in killing Brugia pahangi | unaffected | fully active | effective at killing the sand flies in a dose-dependent manner | effective at killing the sand flies in a dose-dependent manner |  | IC50 ([1]; twenty-four hours after the blood meal): 33 to 56 nM; IC50 ([3]; 24 hours after the blood meal, Tiassalé strain): 33.2 nM; IC50 ([4]; 24 hours after the blood meal, New Orleans strain): 34.2 nM; IC50 ([5]; 24 hours after the blood meal, Kisumu strain): 33.3 nM; time the concentration is above the level lethal to Anopheles mosquitos (Anopheles mosquitos; dose of 56 mg/kg): 72 days |
| O=C(CNC(=O)c1ccc(C2=NO[C@@](c3cc(Cl)cc(C(F)(F)F)c3)(C(F)(F)F)C2)c2ccccc12)NCC(F)(F)F [(S)-afoxolaner] |  |  |  |  |  | >99.9% |  |
| O=C(CNC(=O)c1ccc(C2=NO[C@@](c3cc(Cl)cc(Cl)c3)(C(F)(F)F)C2)c2ccccc12)NCC(F)(F)F [(S)-4-(5-(3,5-dichlorophenyl)-5-(trifluoromethyl)-4,5-dihydroisoxazol-3-yl)-N-(2-oxo-2-((2,2,2-trifluoroethyl)amino)ethyl)-1-naphthamide] |  |  |  |  |  | >99.9% |  |
| O=C(CNC(=O)c1ccc(C2=NO[C@](c3cc(Cl)cc(C(F)(F)F)c3)(C(F)(F)F)C2)c2ccccc12)NCC(F)(F)F (racemic) [Afoxolaner, afoxolaner] | effective in killing Brugia pahangi | unaffected | fully active | effective at killing the sand flies in a dose-dependent manner | effective at killing the sand flies in a dose-dependent manner |  | IC50 [1]: 90 to 107 nM; IC50 ([3]; 24 h): 101 nM; IC50 ([4]; 24 h): 100 nM; IC50 ([5]; 24 h): 101 nM; time the concentration is above lethal level (Anopheles mosquitos; 1 mg/kg): 43 days; time the concentration is above lethal level (Anopheles mosquitos; 4 mg/kg): 72 days |
